“Also recorded” adds a separate entry of the source.
What was measured:
[1] = system: C. elegans; settings: total GFP area, days 3 and 7 post chemical exposure
[2] = system: C. elegans strain PE254; experiment: C. elegans LSC qHTS viability assay, Anti-Infectives library primary screen (BG-fed, 384-well); format: in vivo, Caenorhabditis elegans; settings: for activity on C. elegans viability in primary qHTS (in words): seven-point titration, GFP area
Procedure: Levamisole, ivermectin and albendazole were purchased from Sigma-Aldrich. Stock solutions of all compounds were prepared at 10 mM in DMSO, and ivermectin was diluted to a 10 µM working dilution in DMSO. […] Of these, 284 (38%) are approved for clinical use in the United States, 32 (4%) were previously marketed for use in the United States, and 62 (8%) are used clinically outside of the United States. […] DMSO stock solutions of were arrayed in Echo-qualified 384-well cyclic olefin copolymer plates (Labcyte) in qHTS inter-plate dilution with seven concentrations, 1:5 dilution, resulting in a final concentration range of 2.5–20 mM high concentration titrated to 160 nM to 1.28 µM low concentration ([Yasgar et al., 2008]). ‘Assay-ready’ plates were prepared in 384-well uClear microtiter plates (Greiner BioOne), with compounds acoustically dispensed at 250 nl per well with an Echo 555 in the above inter-plate titration array. Two plates with DMSO added across the compound field at the same volume were prepared as screening controls (‘uniformity plates’). DMSO vehicle control was added to every well of column 1, and levamisole cytotoxicity control was added at a high concentration of 10 mM in wells 1–8 and titrated 1:3, starting at a high concentration of 10 mM to 4.57 µM in wells 9–16 of column 2 of every plate. Additionally, ivermectin, levamisol and albendazole were plated as internal controls on one assay plate in 16-point, 1:2 titration down six replicate columns per compound, starting at a high concentration of 10 µM (ivermectin) or 10 mM (levamisole and albendazole). Assay-ready plates were sealed and frozen at −80°C until use.
C. elegans strain PE254 were collected from 12 NGM plates as above, transferred to 250 ml S medium supplemented with OP50 E. coli pellet collected from 2 l overnight culture, and grown for 5 days at 21°C with vigorous shaking in an Incu-Shaker Mini Shaking Incubator (Benchmark Scientific, Inc.). Eggs were axenized as above and hatched overnight in M9 buffer at 21°C and shaken at 65 rpm. Assay ready plates were thawed and allowed to equilibrate to ambient temperature. BGs in S medium (30 µl/well) at an OD600=0.85 were manually added across plates with a Capp pipette. Synchronized L1 worms from above were collected, diluted and plated at ten worms/30 µl/well with a Capp pipette into assay-ready microtiter plates pre-plated with BGs and compounds (240-fold dilution). […] No ethical approval or guidance is needed for working with nematodes.
Data from the Anti-Infectives screen were normalized by plate to corresponding intra-plate controls as previously described ([Inglese et al., 2006]). Assay statistics were calculated using the same respective controls. Total object ‘GFP’ area (µm^2) and number of worms were normalized to the average signal of DMSO-treated wells as zero percent neutral control, and the average signal of 41.7 µM levamisole-treated wells as −100% activity. In-house software was used to fit the resulting inter-plate titration data to the standard Hill equation, and concentration–response curves were classified by activity as previously described ([Southall et al., 2009]). Curve fits assignments of −1.1, −1.2, −2.1, −2.2 and −3 were considered active and visually confirmed.

[3] = system: C. elegans strain PE254; experiment: Follow-up 11-point re-test, C. elegans LSC viability; format: in vivo, Caenorhabditis elegans; settings: for activity on C. elegans viability in follow-up (in words): 11-point titration, day 7, GFP area and worm number; for EC50: day 7, screening control in re-test, 4 replicate wells
Procedure: C. elegans strain PE254 were collected from six NGM plates and washed. […] Assay-ready plates were prepared as above with an 11-point, 1:3 titration of 96 compounds identified as active from the qHTS screen based on curve classification and maximum response. […] Data were normalized as above, and concentration–response curves were fit in Prism with nonlinear regression log(agonist) versus response–variable slope (four parameters) fit.

[4] = system: C. elegans strain PE254; experiment: Life-stage distribution analysis by COPAS flow cytometry after 7-day treatment; format: in vivo, Caenorhabditis elegans; settings: 7-day treatment at ∼EC75-80, mixed population of 2000 worms/well
Procedure: After 7 days of compound treatment in six-well culture plates seeded with a mixed population of 2000 C. elegans strain PE254, a life-stage distribution analysis was determined by TOF and EC using the COPAS FP BioSorter, followed by bulk collection in a 50 ml conical tube for use in proteomics studies.

[5] = system: C. elegans strain PE254; experiment: 384-well LSC C. elegans viability assay, life-stage sorted worms on BGs or OP50 live bacteria (assay development); format: in vivo, Caenorhabditis elegans
[6] = system: HEK293 cells; experiment: HEK293 cell viability (CellTiter-Glo, ATP levels); format: cell-based; settings: Homo sapiens, 24 h post-treatment, screening control, 14 replicate wells
Procedure: Mammalian cell toxicity was evaluated in HEK293 cells (ATCC) using ATP levels as an indicator of metabolically active cells. Assays were performed in 1536-well plates (Greiner white/solid bottom, high base), and luminescence measurements were made on a ViewLux (Perkin Elmer) ([Martinez et al., 2021]; [Solinski et al., 2019]). Assay-ready plates in 1536-well format were prepared as above using the 384-well Echo-compatible source plates; 25 nl of a seven-point titration with 1:5 dilution starting at a high concentration of 2.5–20 mM of compound was added to respective wells with an Echo 555 acoustic dispenser. A titration of digitonin, 20 mM to 610 nM in DMSO (83.3 µM to 2.5 nM final assay concentration), was used as an intraplate cell toxicity control titration. DMSO vehicle and 83.3 μM digitonin final concentration (64 or 32 replicate wells per assay plate, respectively) were used to establish the assay signal window. Plates were stored at −80°C until use and equilibrated to ambient temperature prior to cell dispense. Then, 1500 cells were added at 6 μl assay volume/well (240-fold dilution) across plates with a Multidrop Combi dispenser (Thermo Fisher Scientific) in standard Dulbecco's modified Eagle medium. Cell viability-dependent luminescence levels were read following the addition of 4 μl CellTiter-Glo (Promega) after 24 h incubation with the test compound.

[7] = system: C. elegans; design: method as in Sant'anna et al., 2013; settings: all life stages, post 7-day treatment; ref Sant'anna et al., 2013; read-out: EC50 (toxic); cited from earlier work
[8] = treatment day 2, internal control, 16-point titration, six replicate wells, read-out: Treatment day, EC50 (GFP area)
[9] = treatment day 3, internal control, 16-point titration, six replicate wells, read-out: Treatment day, EC50 (GFP area)
[10] = treatment day 4, internal control, 16-point titration, six replicate wells, read-out: Treatment day, EC50 (GFP area)
[11] = treatment day 5, internal control, 16-point titration, six replicate wells, read-out: Treatment day, EC50 (GFP area)
[12] = treatment day 6, internal control, 16-point titration, six replicate wells, read-out: Treatment day, EC50 (GFP area)
[13] = treatment day 7, internal control, 16-point titration, six replicate wells, read-out: Treatment day, EC50 (GFP area)

For `CCOCn1c(-c2ccc(Cl)cc2)c(C#N)c(Br)c1C(F)(F)F` [Chlorfenapyr, chlorfenapyr], the “activity in Tox21 sub-library C. elegans qHTS (in words)” value [1] was “identified”.

With `O=C(/C=C\n1cnc(-c2cc(C(F)(F)F)cc(C(F)(F)F)c2)n1)NNc1cnccn1` [Selinexor] the “activity on C. elegans viability in primary qHTS (in words)” value (from here on “activity … in primary qHTS (in words)”) [2] was “low potency and efficacy”, the “activity on C. elegans viability in follow-up (in words)” value (“activity … in follow-up (in words)” below) [3] was “moderately active” and the “effect on life stage viability (in words)” value (from here on “effect”) [4] was “inactive”.

Work on `c1ccc([C@H]2CN3CCSC3=N2)cc1` [Levamisole] yielded an EC50 ([2]; day 3, intra-plate screening control, averaged from 21 replicates, normalized to 41.7 μM levamisole, read-out: EC50 (GFP area)) of 9370 ± 930 nM, an EC50 ([2]; day 3, intra-plate screening control, averaged from 21 replicates, read-out: EC50 (number of worms)) of 5960 ± 2400 nM and an EC50 ([2]; day 7, intra-plate screening control, averaged from 21 replicates, read-out: EC50 (GFP area)) of 7990 ± 1440 nM. For the same compound, the EC50 ([2]; day 7, intra-plate screening control, averaged from 21 replicates, read-out: EC50 (number of worms)) was 5740 ± 910 nM, the “activity … in primary qHTS (in words)” value [2] was “active” and the EC50 [2, 8] was 12700 ± 4700 nM. For the same compound, the EC50 [2, 9] was 14000 ± 5500 nM, the EC50 [2, 10] was 5600 ± 1500 nM and the EC50 [2, 11] was 5300 ± 600 nM. The EC50 [2, 12] was 4900 ± 400 nM, the EC50 [2, 13] was 5000 ± 800 nM and the “EC50 values (in words)” value ([5]; all life stages, both media (BGs and live bacteria), 7-day time course) was “low-micromolar range”. For the same compound, the EC50 ([3]; read-out: EC50 using #worms) was 2450 nM and the EC50 ([3]; read-out: EC50 using GFP area) was 2230 nM.

With `C[C@@H]1CC[C@@]2(OC1)O[C@H]1[C@@H](O)[C@H]3[C@@H]4CC[C@H]5C[C@@H](O[C@@H]6O[C@H](CO)[C@H](O[C@@H]7O[C@H](CO)[C@@H](O)[C@H](O[C@@H]8OC[C@@H](O)[C@H](O)[C@H]8O)[C@H]7O[C@@H]7O[C@H](CO)[C@H](O)[C@H](O[C@@H]8O[C@H](CO)[C@@H](O)[C@H](O)[C@H]8O)[C@H]7O)[C@H](O)[C@H]6O)[C@H](O)C[C@]5(C)[C@H]4CC[C@]3(C)[C@H]1[C@@H]2C` [Digitonin, digitonin] the EC50 [6] was 31300 nM.

For `CC(C)(C)c1cc(C=C(C#N)C#N)cc(C(C)(C)C)c1O` [Tyrphostin A9, tyrphostin A9], the “activity … in follow-up (in words)” value [3] was “best activity; also recorded: potent and/or efficacious toxicity”.

In the case of Ivermectin, the “activity … in primary qHTS (in words)” value [2] is reported as “active”, the EC50 [2, 8] is reported as 17 ± 3.9 nM and the EC50 [2, 9] is reported as 16.9 ± 2.3 nM. It also gave an EC50 [2, 10] of 14 ± 1.7 nM, an EC50 [2, 11] of 14.6 ± 1.1 nM and an EC50 [2, 12] of 13.6 ± 1.1 nM. It also gave an EC50 [2, 13] of 12.4 ± 1.2 nM and an EC50 ([5]; all life stages grown on BGs, by day 1, read-out: half-maximal effective concentration (EC50)) of ~1 nM.

With `CC(=O)OC[C@H]1O[C@@H]([S-])[C@H](OC(C)=O)[C@@H](OC(C)=O)[C@@H]1OC(C)=O.CCP(CC)CC.[Au+]` [Auranofin, auranofin] the “activity … in follow-up (in words)” value [3] was “best activity; also recorded: potent and/or efficacious toxicity”.

In the case of `COC(=O)[C@]1(C)CC[C@]2(C)CC[C@]3(C)C4=CC=C5C(=CC(=O)C(O)=C5C)[C@]4(C)CC[C@@]3(C)[C@@H]2C1` [Pristimerin, pristimerin], the “activity … in follow-up (in words)” value [3] is reported as “potent and/or efficacious toxicity”.

With `Clc1ccc(C(c2ccc(Cl)cc2)C(Cl)(Cl)Cl)cc1` [DDT, dichlorodiphenyltrichloroethane] the “activity in Tox21 sub-library C. elegans qHTS (in words)” value [1] was “potent activity”.

For `O=C(/C=C\n1cnc(-c2cc(C(F)(F)F)cc(C(F)(F)F)c2)n1)NNc1ccccn1` [Verdinexor, verdinexor], the “activity … in primary qHTS (in words)” value [2] was “low potency and efficacy” and the “activity … in follow-up (in words)” value [3] was “moderately active”.

With oligomycin A the “activity … in follow-up (in words)” value [3] was “best activity; also recorded: potent and/or efficacious toxicity”.

`CCCSc1ccc2nc(NC(=O)OC)[nH]c2c1` [Albendazole] gave an EC50 ([2]; Caenorhabditis elegans, 72 h, read-out: Treatment day, EC50 (GFP area)) of 200 ± 300 nM, an EC50 ([2]; Caenorhabditis elegans, 96 h, read-out: Treatment day, EC50 (GFP area)) of 800 ± 700 nM and an EC50 ([2]; Caenorhabditis elegans, 120 h, read-out: Treatment day, EC50 (GFP area)) of 900 ± 400 nM. For the same compound, the EC50 ([2]; Caenorhabditis elegans, 144 h, read-out: Treatment day, EC50 (GFP area)) was 800 ± 400 nM, the EC50 ([2]; Caenorhabditis elegans, 168 h, read-out: Treatment day, EC50 (GFP area)) was 1100 ± 600 nM and the “toxicity (in words)” value ([5]; worms grown on BGs, as early as day 1 for L4 and adult worms, by day 2 for most life stages) was “significant toxicity”. For the same compound, the EC50 [7] was > 10000 nM.

With `O=C(Oc1ccc([N+](=O)[O-])cc1)N1CCC(C(O)(c2ccc3c(c2)OCO3)c2ccc3c(c2)OCO3)CC1` [JZL-184] the “activity … in primary qHTS (in words)” value [2] was “low potency and efficacy” and the “activity … in follow-up (in words)” value [3] was “moderately active”.

For `CC(C)C[C@H](NC(=O)[C@H](Cc1ccccc1)NC(=O)c1cnccn1)B(O)O` [Bortezomib], the EC50 ([2]; Caenorhabditis elegans, Fig. 3D, read-out: qHTS potency based on GFP area) was 888 nM, the EC50 ([2]; Caenorhabditis elegans, Fig. 3D, read-out: qHTS potency based on worm number) was 592 nM and the “effect” value [4] was “potent larval-stage depletion”. For the same compound, the “effect” value ([4]; listed as 5) was “affecting life-stage progression or number”.

Reference: PMC10067442, “In vivo quantitative high-throughput screening for drug discovery and comparative toxicology” (Disease Models & Mechanisms, 2023)
